Earlier results, collected in article PMC4844938 (Molecules and Cells, 2016).

Test system: RANKL
Conditions: ref Ta et al., 2010

Kd (read-out: Kd for RANKL, reported in previous work): 17.3 µM
Substance: 1-YC WNSDCECCYRR-13 (bicyclic or more) [L3-3]
affinity for RANKL relative to OP3-4 (previous work): higher affinity for RANKL as compared to OP3-4
